System: porcine skin (ER); EpiDerm™ normal human derived epidermal keratinocytes (IP)
Test: ER/IP: skin conductivity enhancement ratio (INSIGHT apparatus) divided by irritation potential (EpiDerm MTT viability)
Parameters: species or system Yorkshire pigs; human
Conditions: EpiDerm and INSIGHT apparatus, procedures of Examples 1 and 2; FIG. 32 left-hand panel
Experimental: Formulations containing 1.5% (wt/vol) of each CPE were prepared in a 1:1 EtOH:PBS (ethanol:phosphate buffered saline) solvent.
Irritation potential of formulations was estimated using EpiDerm™ (MatTek Corporation, Ashland, Mass. www.mattek.com), a cell culture of normal human derived epidermal keratinocytes. EpiDerm™ cultures were stored and handled according to the standard protocol MTT-ET-50 supplied by MatTek Corporation. To study the effect of the test formulations on cell viability, cell cultures were exposed to 10 μl of the test formulation consisting of 1.5% (wt/vol) of each CPE in a 1:1 EtOH:PBS solvent for 4 hours. Each test formulation was analyzed in duplicate. The cell cultures were then handled as per the MTT-ET-50 protocol. The optical absorbance data from the extracted samples was then used to calculate the percentage cell viability as recommended in the protocol. Based on the cell viability, the irritation potential, IP, was defined as follows:
1% (wt/vol) Triton X-100 dissolved in water was used as the positive control and 1:1 PBS:EtOH was used as negative control. […]
Enhancement ratios were measured using an apparatus (the INSIGHT apparatus) which consisted of a polycarbonate plate that served as the receptor plate and a Teflon® plate that served as the donor plate. […]
Skin impedance in each well was recorded using two electrodes. […]

C=C(C)C(=O)OCCCCCCCCCCCCCCCCCC [SM, stearyl methacrylate]
FP/IPDescriptor (ER/IP determined experimentally) relative to oleic acid: about 3 times

Source: patent US20090105260A1, “Molecules to Enhance Percutaneous Delivery and Methods for Discovery Therefor” (priority 2005, published 2009)
